One assay addresses T1, NLRP3 inflammasome (Homo sapiens, UniProt Q96P20).
T1 construct: endogenous in cells; host or cells: THP-1 monocytic cells
The assay is described as follows: IL-1β secretion assay (NLRP3 IC50) in LPS-primed, nigericin-activated THP-1 cells, HTRF. Particulars: monocytic THP-1 cells; LPS 10 ng/mL 3 h priming, then compound + nigericin 10 μM 2 h; relative IC50, 10 concentrations, geometric mean. The class given is cell-based. The method, boiled down:
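THP-1 cells primed with LPS 10 ng/mL for 3 h at 37° C., then compound (10-point 1:3 dilution, 0.1% DMSO) added with 10 μM nigericin for 2 h. Supernatant IL-1β measured by HTRF; relative IC50 from a 4-parameter logistic fit, reported as geometric mean.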
(In general: Time-resolved FRET reads energy transfer from a long-lived donor to a nearby acceptor.)

In assay [1] the test system is NF-kB pathway (TNF-α secretion by THP-1 cells). The assay is described as follows: TNF-α secretion assay in LPS-stimulated THP-1 cells, Lumit immunoassay. In kind it is cell-based, human. Particulars: Homo sapiens, THP-1, 3 h, monocytic THP-1 cells, LPS 10 ng/mL, relative IC50, 10 concentrations, geometric mean. The gist of the method: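 THP-1 monocytes in RPMI with 5% FBS were treated with compound, then stimulated with 10 ng/mL LPS for 3 h. Secreted TNF-α was measured in-plate by Lumit immunoassay. Relative IC50 came from 10-concentration curves fitted with a 4-parameter logistic model, reported as geometric mean.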

A word on the IC50: it is the midpoint of a concentration-inhibition curve.

Molecules are shown by their SMILES.

T1 sequence (Q96P20 whole entry): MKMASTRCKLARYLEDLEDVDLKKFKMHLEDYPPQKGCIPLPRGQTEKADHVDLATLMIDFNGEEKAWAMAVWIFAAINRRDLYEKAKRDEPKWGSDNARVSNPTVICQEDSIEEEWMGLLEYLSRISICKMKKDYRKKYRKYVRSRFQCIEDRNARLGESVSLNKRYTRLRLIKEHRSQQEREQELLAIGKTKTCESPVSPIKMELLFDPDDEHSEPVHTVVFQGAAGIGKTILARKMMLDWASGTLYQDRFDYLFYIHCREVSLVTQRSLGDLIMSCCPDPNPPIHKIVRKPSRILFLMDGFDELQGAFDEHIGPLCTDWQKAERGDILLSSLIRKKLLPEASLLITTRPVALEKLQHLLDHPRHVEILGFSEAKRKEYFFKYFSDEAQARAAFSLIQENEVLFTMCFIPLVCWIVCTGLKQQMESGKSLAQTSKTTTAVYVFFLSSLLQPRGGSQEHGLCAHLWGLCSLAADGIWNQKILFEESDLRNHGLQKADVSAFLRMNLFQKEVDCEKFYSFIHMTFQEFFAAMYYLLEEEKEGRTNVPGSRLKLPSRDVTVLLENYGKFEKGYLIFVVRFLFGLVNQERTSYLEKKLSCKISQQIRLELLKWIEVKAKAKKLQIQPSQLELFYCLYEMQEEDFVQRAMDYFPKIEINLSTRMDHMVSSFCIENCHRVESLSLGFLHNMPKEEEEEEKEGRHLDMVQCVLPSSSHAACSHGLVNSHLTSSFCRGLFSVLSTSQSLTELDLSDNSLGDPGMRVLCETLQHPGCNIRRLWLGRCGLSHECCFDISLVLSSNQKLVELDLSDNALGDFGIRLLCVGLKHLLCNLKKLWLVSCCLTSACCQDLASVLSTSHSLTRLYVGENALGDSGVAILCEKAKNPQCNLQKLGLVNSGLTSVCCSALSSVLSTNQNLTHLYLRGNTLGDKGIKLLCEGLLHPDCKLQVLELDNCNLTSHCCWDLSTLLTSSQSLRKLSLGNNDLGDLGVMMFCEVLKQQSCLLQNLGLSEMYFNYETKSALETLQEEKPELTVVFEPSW

Regarding `Cc1cc(O)c(-c2ccc(N3CCO[C@H](CO)C3)nn2)c(Cl)c1` [Example 172, 3-chloro-2-[6-[(2S)-2-(hydroxymethyl)morpholin-4-yl]pyridazin-3-yl]-5-methyl-phenol], the IC50 was 36 nM on NLRP3 inflammasome and above 10 µM in assay [1].
On to `Cc1cc(C)c(-c2ccc(N3C[C@@H](CO)O[C@@H](CO)C3)nn2)c(O)c1` [Example 173, 2-[6-[(2R,6S)-2,6-bis(hydroxymethyl)morpholin-4-yl]pyridazin-3-yl]-3,5-dimethyl-phenol], for which the concentration for half-maximal inhibition (IC50) at NLRP3 inflammasome is 40 nM; in assay [1], above 10 µM.
Turning to `Cc1cc(C)c(-c2ccc(N3CCOC(CF)C3)nn2)c(O)c1` (centres unmarked) [Example 174, 2-[6-[2-(fluoromethyl)morpholin-4-yl]pyridazin-3-yl]-3,5-dimethyl-phenol], the IC50 on NLRP3 inflammasome was 170 nM; in assay [1], above 10 µM.
For `Cc1cc(O)c(-c2nnc(N3CCO[C@H](CO)C3)cc2C)c(Cl)c1` [Example 177, 3-chloro-2-[6-[(2S)-2-(hydroxymethyl)morpholin-4-yl]-4-methyl-pyridazin-3-yl]-5-methyl-phenol], in that order: 91 nM and 7.38 µM.
`Cc1cc(C(F)(F)F)cc(O)c1-c1ccc(N2C[C@@H](CO)O[C@@H](CO)C2)nn1` [Example 178, 2-[6-[(2R,6S)-2,6-bis(hydroxymethyl)morpholin-4-yl]pyridazin-3-yl]-3-methyl-5-(trifluoromethyl)phenol]: the results for the concentration for half-maximal inhibition (IC50) (at NLRP3 inflammasome; in assay [1]) were 7 nM and above 10 µM, respectively.
For `Cc1cc(C)c(-c2cc(CO)c(N3CCO[C@H](CO)C3)nn2)c(O)c1` [Example 187, 2-[5-(hydroxymethyl)-6-[(2S)-2-(hydroxymethyl)morpholin-4-yl]pyridazin-3-yl]-3,5-dimethyl-phenol], in that order: 66 nM and above 10 µM.
On to `Cc1cc(Cl)cc(O)c1-c1nnc(N2CCO[C@H](CO)C2)cc1CO` [Example 188, 5-chloro-2-[4-(hydroxymethyl)-6-[(2S)-2-(hydroxymethyl)morpholin-4-yl]pyridazin-3-yl]-3-methyl-phenol], for which the IC50 at NLRP3 inflammasome is 414 nM; in assay [1], above 10 µM.
`Cc1cc(Cl)cc(O)c1-c1cc(CO)c(N2CCO[C@H](CO)C2)nn1` [Example 189, 5-chloro-2-[5-(hydroxymethyl)-6-[(2S)-2-(hydroxymethyl)morpholin-4-yl]pyridazin-3-yl]-3-methyl-phenol]: the IC50 on NLRP3 inflammasome is 12 nM; in assay [1], above 10 µM.
The like results for `[2H]C([2H])(O)[C@@H]1CN(c2ccc(-c3c(C)cc(C(F)(F)F)cc3O)nn2)CCO1` [Example 192, 2-[6-[(2S)-2-[dideuterio(hydroxy)methyl]morpholin-4-yl]pyridazin-3-yl]-3-methyl-5-(trifluoromethyl)phenol] were, in that order, 11 nM and above 10 µM.
Consider `Cc1cc(Cl)cc(O)c1-c1ccc(N2CCOc3cc(O)ccc32)nn1` [Example 193, 4-[6-(4-chloro-2-hydroxy-6-methyl-phenyl)pyridazin-3-yl]-2,3-dihydro-1,4-benzoxazin-7-ol], for which the figures for the half-inhibitory concentration (IC50) (at NLRP3 inflammasome; in assay [1]) were 534 nM and 9.83 µM, respectively.
For `Cc1cc(C(F)(F)F)cc(O)c1-c1cc(C(F)F)c(N2CCO[C@H](CO)C2)nn1` [Example 194, 2-[5-(difluoromethyl)-6-[(2S)-2-(hydroxymethyl)morpholin-4-yl]pyridazin-3-yl]-3-methyl-5-(trifluoromethyl)phenol], in that order: 4 nM and above 10 µM.
Regarding `Cc1cc(C)c(-c2ccc(N3CCNC4(CCOC4)C3)nn2)c(O)c1` (centres unmarked) [Example 196, 3,5-dimethyl-2-[6-(2-oxa-6,9-diazaspiro[4.5]decan-9-yl)pyridazin-3-yl]phenol], the IC50 was 452 nM at NLRP3 inflammasome and above 10 µM in assay [1].
As for `Cc1cc(C)c(-c2ccc(N3C[C@@H](CO)O[C@H](CO)C3)nn2)c(O)c1` [Example 198, 2-[6-[(2S,6S)-2,6-bis(hydroxymethyl)morpholin-4-yl]pyridazin-3-yl]-3,5-dimethyl-phenol], the half-maximal inhibitory concentration (IC50) at NLRP3 inflammasome is 16 nM; in assay [1], above 10 µM.
As to `Cc1cc(C(F)(F)F)cc(O)c1-c1ccc(N2C[C@@H](CO)O[C@H](CO)C2)nn1` [Example 199, 2-[6-[(2S,6S)-2,6-bis(hydroxymethyl)morpholin-4-yl]pyridazin-3-yl]-3-methyl-5-(trifluoromethyl)phenol], the IC50 at NLRP3 inflammasome was 4 nM; in assay [1], above 10 µM.
As to `Cc1cc(C(F)(F)F)cc(O)c1-c1ccc(N2C[C@H](CO)O[C@@H](CO)C2)nn1` [Example 200, 2-[6-[(2R,6R)-2,6-bis(hydroxymethyl)morpholin-4-yl]pyridazin-3-yl]-3-methyl-5-(trifluoromethyl)phenol], the figures for the half-inhibitory concentration (IC50) (on NLRP3 inflammasome; in assay [1]) were 23 nM and above 10 µM, respectively.
For `Cc1cc(C)c(-c2ccc(N3C[C@H](CO)O[C@@H](CO)C3)nn2)c(O)c1` [Example 201, 2-[6-[(2R,6R)-2,6-bis(hydroxymethyl)morpholin-4-yl]pyridazin-3-yl]-3,5-dimethyl-phenol], in that order: 76 nM and above 10 µM.
As for `Oc1cc(Cl)cc(Cl)c1-c1ccc(N2CCSCC2)nn1` [Example 203, 3,5-dichloro-2-(6-thiomorpholinopyridazin-3-yl)phenol], the 50% inhibitory concentration (IC50) at NLRP3 inflammasome turned out to be 332 nM; in assay [1], 9.99 µM.
For the molecule `Cc1cc(C2CC2)cc(O)c1-c1ccc(N2CCO[C@H](CO)C2)nn1` [Example 204, 5-cyclopropyl-2-[6-[(2S)-2-(hydroxymethyl)morpholin-4-yl]pyridazin-3-yl]-3-methyl-phenol], the values for the IC50 (at NLRP3 inflammasome; in assay [1]) were 54 nM and above 10 µM, respectively.
As for `Cc1cc(C)c(-c2ccc(N3C[C@H]4COC[C@H]4C3)nn2)c(O)c1` [Example 206, 2-[6-[(3aS,6aR)-1,3,3a,4,6,6a-hexahydrofuro[3,4-c]pyrrol-5-yl]pyridazin-3-yl]-3,5-dimethyl-phenol], the IC50 on NLRP3 inflammasome was 325 nM; in assay [1], above 10 µM.
For `CC(=O)NC[C@@H]1CCCN(c2ccc(-c3c(C)cc(Cl)cc3O)nn2)C1` [Example 211, N-[[(3S)-1-[6-(4-chloro-2-hydroxy-6-methyl-phenyl)pyridazin-3-yl]-3-piperidyl]methyl]acetamide], the IC50 at NLRP3 inflammasome is 34 nM; in assay [1] it was above 10 µM.
As for `CC(=O)NC[C@H]1CCCN(c2ccc(-c3c(C)cc(Cl)cc3O)nn2)C1` [Example 212, N-[[(3R)-1-[6-(4-chloro-2-hydroxy-6-methyl-phenyl)pyridazin-3-yl]-3-piperidyl]methyl]acetamide], the figures for the concentration for half-maximal inhibition (IC50) (at NLRP3 inflammasome; in assay [1]) were 39 nM and above 10 µM, respectively.
As to `CC(=O)NC[C@@H]1CN(c2ccc(-c3c(C)cc(C(F)(F)F)cc3O)nn2)CCO1` [Example 216, N-[[(2R)-4-[6-[2-hydroxy-6-methyl-4-(trifluoromethyl)phenyl]pyridazin-3-yl]morpholin-2-yl]methyl]acetamide], the results for the half-inhibitory concentration (IC50) (at NLRP3 inflammasome; in assay [1]) were 128 nM and above 10 µM, respectively.
Take `Cc1cc(C)c(-c2ccc(N3CCCc4ccc(O)cc43)nn2)c(O)c1` [Example 217, 1-[6-(2-hydroxy-4,6-dimethyl-phenyl)pyridazin-3-yl]-3,4-dihydro-2H-quinolin-7-ol]: the figures for the IC50 (at NLRP3 inflammasome; in assay [1]) were 127 nM and above 10 µM, respectively.
For `Cc1cc(C)c(-c2ccc(N3CCO[C@H](CF)C3)nn2)c(O)c1` [Example 219, 2-[6-[(2S)-2-(fluoromethyl)morpholin-4-yl]pyridazin-3-yl]-3,5-dimethyl-phenol], in that order: 103 nM and above 10 µM.
`Cc1cc(C)c(-c2ccc(N3CCO[C@@H](CF)C3)nn2)c(O)c1` [Example 220, 2-[6-[(2R)-2-(fluoromethyl)morpholin-4-yl]pyridazin-3-yl]-3,5-dimethyl-phenol]: the IC50 on NLRP3 inflammasome is 108 nM; in assay [1] it was above 10 µM.
In the case of `Cc1cc(C)c(-c2ccc(N3CCCc4cc(O)ccc43)nn2)c(O)c1` [Example 230, 1-[6-(2-hydroxy-4,6-dimethyl-phenyl)pyridazin-3-yl]-3,4-dihydro-2H-quinolin-6-ol], the IC50 at NLRP3 inflammasome was 556 nM; in assay [1] it was 9.14 µM.
The like results for `Cc1cc(C)c(-c2ccc(N3CCCc4cccc(O)c43)nn2)c(O)c1` [Example 231, 1-[6-(2-hydroxy-4,6-dimethyl-phenyl)pyridazin-3-yl]-3,4-dihydro-2H-quinolin-8-ol] were, in that order, 219 nM and above 10 µM.
Take `Cc1cc(C)c(-c2ccc(N3CCCc4c(O)cccc43)nn2)c(O)c1` [Example 232, 1-[6-(2-hydroxy-4,6-dimethyl-phenyl)pyridazin-3-yl]-3,4-dihydro-2H-quinolin-5-ol]: the results for the IC50 (at NLRP3 inflammasome; in assay [1]) were 502 nM and 7.63 µM, respectively.
With `Cc1cc(C)c(-c2ccc(N3CC(CO)CCC3=O)nn2)c(O)c1` (centres unmarked) [Example 235, 1-[6-(2-hydroxy-4,6-dimethyl-phenyl)pyridazin-3-yl]-5-(hydroxymethyl) piperidin-2-one], the IC50 is 70 nM at NLRP3 inflammasome and 7.13 µM in assay [1].
As to `Cc1cc(C)c(-c2ccc(N3CCc4cc(O)ccc43)nn2)c(O)c1` [Example 236, 1-[6-(2-hydroxy-4,6-dimethyl-phenyl)pyridazin-3-yl]indolin-5-ol], the half-maximal inhibitory concentration (IC50) at NLRP3 inflammasome amounted to 551 nM; in assay [1] it was 9.65 µM.
For `O=C1NCCCN1c1ccc(-c2c(O)cc(Cl)cc2Cl)nn1` [Example 239, 1-[6-(2,4-dichloro-6-hydroxy-phenyl)pyridazin-3-yl]hexahydropyrimidin-2-one], in that order: 200 nM and above 10 µM.

Values taken from patent publication US20240360151A1 (SANOFI, priority 2023, published 2024).
